# Target: T1, human recombinant IL-17A (Homo sapiens, UniProt Q16552)
# T1 construct: purchased R&D Systems 7955-IL/CF
# T1 sequence (Q16552 24-155): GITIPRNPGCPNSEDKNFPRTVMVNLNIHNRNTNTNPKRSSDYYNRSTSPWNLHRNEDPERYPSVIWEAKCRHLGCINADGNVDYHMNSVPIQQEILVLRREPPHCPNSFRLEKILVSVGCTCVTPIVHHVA
# Test: IL-17A AlphaLISA assay (block binding of IL-17A to its receptor IL-17RA)
# Details: compounds pre-incubated with the IL-17A for 24 h at room temperature; read-out: AlphaLISA pIC50 (converted)
# Method: The ability of the compounds to block binding of IL-17A to its receptor, IL-17RA, was analysed in a competition assay using AlphaLISA technology (Perkin Elmer). The assay is a bead based AlphaLISA where the IL-17RA is captured on the acceptor bead via an Fc tag and IL-17A is captured on the streptavidin donor bead via a biotinylated anti-IL17A antibody.
# Assay buffer was prepared by adding 0.05% Tween-20 (v/v) and 0.1% BSA to Phosphate Buffered Saline (PBS). The assay was carried out in 384-well white low volume plates (Corning 4512). 10 µL of a 7.5 nM stock of human recombinant IL-17A (R&D Systems 7955-IL/CF) diluted in assay buffer was dispensed into the assay plate and compounds or DMSO vehicle control were added in a volume of 75 nL using a D300 dispenser (Hewlett Packard). The compounds were pre-incubated with the IL-17A for 24 h at room temperature (or for 30 min, where indicated by * in Table A below) prior to addition of 5 μL of a 5 nM stock of human recombinant IL-17RA/Fc chimera (R&D Systems 177-IR-100) diluted in assay buffer. The IL-17A was incubated with the receptor for a further 90 minutes at room temperature before addition of 5 μL of a mixture of anti-human Fc IgG acceptor beads (75 μg/mL, Perkin Elmer AL103C) and anti-IL-17A biotin conjugated antibody (5 nM, Enzo Life Sciences, ENZ-ABS278-0100) in assay buffer. After a further 30 min incubation at room temperature, 5 μL of streptavidin donor beads ([…], Perkin Elmer 6760002S) were added and the plate was incubated for 3 h in the dark.
# The luminescence signal was measured using an Enspire plate reader (Perkin Elmer) with excitation at 680 nm and emission at 615 nm. Data were analysed using GraphPad Prism and fitted to a 4-parameter logistic equation. The IC50 values were calculated using the DMSO vehicle as the negative control and a high concentration (6 μM) of a reference IL-17A inhibitor as the positive control.
# Activity of the Example compounds is reported as a PIC50 value in Table A.
row,SMILES,IC50 [nM]
1,"COc1cnccc1-c1ccc(NC(=O)[C@@H](NC(=O)c2ccnn2C(F)F)C(c2ccccc2)c2ccccc2)cc1 [Example 46, (S)-1-(difluoromethyl)-N-(1-((4-(3-methoxypyridin-4-yl)phenyl)amino)-1-oxo-3,3-diphenylpropan-2-yl)-1H-pyrazole-5-carboxamide]",100
2,"COc1cnccc1-c1ccc(NC(=O)[C@@H](NC(=O)c2ccnn2C)C(c2ccccc2)c2ccccc2)cc1OC [Example 47, (S)—N-(1-((3-methoxy-4-(3-methoxypyridin-4-yl)phenyl)amino)-1-oxo-3,3-diphenylpropan-2-yl)-1-methyl-1H-pyrazole-5-carboxamide]",25.1
3,"Cn1nccc1C(=O)N[C@H](C(=O)Nc1ccc(-c2ccc(=O)[nH]c2)cc1)C(c1ccccc1)c1ccccc1 [Example 49, (S)-1-methyl-N-(1-oxo-1-((4-(6-oxo-1,6-dihydropyridin-3-yl)phenyl)amino)-3,3-diphenylpropan-2-yl)-1H-pyrazole-5-carboxamide]",100
4,"Cn1nccc1C(=O)N[C@H](C(=O)Nc1ccc(-c2c[nH]c(=O)c3[nH]ccc23)cc1)C(c1ccccc1)c1ccccc1 [Example 52, (S)-1-methyl-N-(1-oxo-1-((4-(7-oxo-6,7-dihydro-1H-pyrrolo[2,3-c]pyridin-4-yl)phenyl)amino)-3,3-diphenylpropan-2-yl)-1H-pyrazole-5-carboxamide]",12.6
5,"COc1cc(NC(=O)[C@@H](NC(=O)c2ccnn2C)C(c2ccccc2)c2ccccc2)ccc1-c1ccncc1CO [Example 53, (S)—N-(1-((4-(3-(hydroxymethyl)pyridin-4-yl)-3-methoxyphenyl)amino)-1-oxo-3,3-diphenylpropan-2-yl)-1-methyl-1H-pyrazole-5-carboxamide]",251
6,"Cc1cncc(C)c1-c1ccc(NC(=O)[C@@H](NC(=O)c2ccnn2C)C(c2ccccc2)c2ccccc2)cc1Cl [Example 55, (S)—N-(1-((3-chloro-4-(3,5-dimethylpyridin-4-yl)phenyl)amino)-1-oxo-3,3-diphenylpropan-2-yl)-1-methyl-1H-pyrazole-5-carboxamide]",100

# Second part, the compound after the results:
row,IC50 [nM],SMILES
1,100,"Cc1cc(NC(=O)[C@@H](NC(=O)c2ccnn2C)C(c2ccccc2)c2ccccc2)ccc1-c1ccncc1 [Example 45, (S)-1-methyl-N-(1-((3-methyl-4-(pyridin-4-yl)phenyl)amino)-1-oxo-3,3-diphenylpropan-2-yl)-1H-pyrazole-5-carboxamide]"
2,158,"Cn1nccc1C(=O)N[C@H](C(=O)Nc1ccc(-c2ccc(=O)n(C)n2)c(F)c1)C(c1ccccc1)c1ccccc1 [Example 48, (S)—N-(1-((3-fluoro-4-(1-methyl-6-oxo-1,6-dihydropyridazin-3-yl)phenyl)amino)-1-oxo-3,3-diphenylpropan-2-yl)-1-methyl-1H-pyrazole-5-carboxamide]"
3,39.8,"Cc1cc(=O)[nH]cc1-c1ccc(NC(=O)[C@@H](NC(=O)c2ccnn2C)C(c2ccccc2)c2ccccc2)cc1 [Example 50, (S)-1-methyl-N-(1-((4-(4-methyl-6-oxo-1,6-dihydropyridin-3-yl)phenyl)amino)-1-oxo-3,3-diphenylpropan-2-yl)-1H-pyrazole-5-carboxamide]"
4,25.1,"Cn1nccc1C(=O)N[C@H](C(=O)Nc1ccc(-c2ccc(=O)n(C)c2)cc1)C(c1ccccc1)c1ccccc1 [Example 51, (S)-1-methyl-N-(1-((4-(1-methyl-6-oxo-1,6-dihydropyridin-3-yl)phenyl)amino)-1-oxo-3,3-diphenylpropan-2-yl)-1H-pyrazole-5-carboxamide]"
5,316,"Cc1c(-c2ccc(NC(=O)[C@@H](NC(=O)c3ccnn3C)C(c3ccccc3)c3ccccc3)cc2C(F)(F)F)ccc(=O)n1C [Example 54, (S)—N-(1-((4-(1,2-dimethyl-6-oxo-1,6-dihydropyridin-3-yl)-3-(trifluoromethyl)phenyl)amino)-1-oxo-3,3-diphenylpropan-2-yl)-1-methyl-1H-pyrazole-5-carboxamide]"

# From patent US20230227427A1, “IL-17A MODULATORS” (SANOFI, priority 2010, published 2023)
